In test [1] the test system is Zymoseptoria tritici strain Zt Tri-R6. In words: Preventive treatment of wheat plants, inoculated leaf fragments (detached leaf test), necrosis length / AUDPC. It counts as in vivo. Here is the method: A study was conducted to evaluate efficacy of multi-site fungicide (Captan) on zymoSeptoria tritici pathogen. Winter wheat plants cv. Alixan (Limagrain) at the BBCH 12 growth stage were treated with a hand sprayer at 2 bars calibrated to deliver the equivalent of 200 L/ha. Three replicates (pots) of 6 wheat plants each are used for all conditions tested. After treatment, wheat plants are left to dry at room temperature for 1 hour and then placed in a climatic chamber.
Twenty-four hours after treatments, 5-cm fragments of the first leaf are cut and transferred on 90-mm diameter Petri dish containing water agar supplemented with an anti-senescing compound (7 leaf fragments per Petri dish). Leaf fragments are then inoculated with a paint brush dipped into the calibrated pycnospores suspension of Z. tritici strain Mg Tri-R6.
After inoculation, Petri dishes are placed in adapted climatic conditions.
Disease assessments are carried out 21 and 28 days post inoculation (dpi) by measuring the length of the necrosis and the total length of the leaf fragment. The intensity of infection is then determined in percent of the total length of the leaf fragment. The values of the intensity of infection obtained are compared by means of the Newman and Keuls test (XL-Stat software, Addinsoft Ltd.).
The most commonly used method for estimating the Area Under the Disease Progress Curve (AUDPC), the trapezoidal method, is performed. The fungicide efficacy was determined from the intensity of infection and the AUDPC values and expressed in percent of the untreated control.

Test [2] has as its system Speckled leaf blotch of wheat (Spetoria Titrici). In words: Field trials (Trial 1 and Trial 2) in winter wheat, control of speckled leaf blotch. Type of test: in vivo, Zymoseptoria tritici. The method, then:
Two trials were conducted in Winter wheat/Triticum aestivum (winter), variety ADVISOR, to evaluate the control of Speckled leaf blotch of wheat (Spetoria Titrici) as primary target. All products were applied with a knapsack sprayer using compressed air as the propellant. The sprayer was equipped with a boom and flat fan nozzles, and calibrated to apply a homogeneous spray volume at a constant pressure.
Application method: Application A: At the beginning of disease attack and Application B: Renew the application when new disease attack occurs in the best plots, 3 weeks after application A (at least 2 weeks, at the most 4 weeks).

Setting [3] is: Dose 1600 g a.i./ha, strain Zt Tri-R6, wheat leaf fragments treated preventively.

On to `OC(Cc1ccccc1Cl)(Cn1nc[nH]c1=S)C1(Cl)CC1` (stereo not drawn) [Prothioconazole], for which the “Fungicide efficacy against Zymoseptoria tritici (%)” value in test [1] (Table 3, from AUDPC values, dose 30 g a.i./ha, strain Zt Tri-R6) is on record as 68.2%; in test [1] (Table 4, from AUDPC values, dose 22.5 g a.i./ha, strain Zt Tri-R6), 62.9%. In addition, the “Fungicide efficacy against Zymoseptoria tritici (% Control)” value (shortened to “Fungicide efficacy … (% Control)”) in test [2] (Trial 1, winter wheat field, rate 0.31 L/ha, 28 DA-B (first 28 DA-B column)) amounted to 31.2 % Control; in test [2] (Trial 1, winter wheat field, rate 0.31 L/ha, 28 DA-B (second 28 DA-B column)) it was 28.8 % Control; in test [2] (Trial 2, winter wheat field, rate 0.31 L/ha, 26 DA-A), 42.3 % Control; in test [2] (Trial 2, winter wheat field, rate 0.31 L/ha, 40 DA-A (first 40 DA-A column)), 40.7 % Control; in test [2] (Trial 2, winter wheat field, rate 0.31 L/ha, 40 DA-A (second 40 DA-A column)) it was 58.4 % Control.
For `N#Cc1c(Cl)c(Cl)c(Cl)c(C#N)c1Cl` [Chlorothalonil], the “Fungicide efficacy … (% Control)” value in test [1] (Dose 750 g a.i./ha, strain Zt Tri-R6, wheat leaf fragments treated preventively) is 69.2 % Control.
`O=C1C2CC=CCC2C(=O)N1SC(Cl)(Cl)Cl` (stereo not drawn) [Captan] returned an efficiency in test [1] (800 g/ha, strain Zt Tri-R6) of 77%. Also, the “inhibition of the development of the Z. tritici strain into wheat leaf tissues” value in test [1] (1600, 2400 and 3200 g/ha) is on record as “almost completely inhibits”. Moreover, the “Fungicide efficacy … (% Control)” value in test [1] (Dose 800 g a.i./ha, strain Zt Tri-R6, wheat leaf fragments treated preventively) amounted to 77.9 % Control; in test [1] (setting [3]), 96.0 % Control; in test [1] (Dose 2400 g a.i./ha, strain Zt Tri-R6, wheat leaf fragments treated preventively), 97.0 % Control; in test [1] (Dose 3200 g a.i./ha, strain Zt Tri-R6, wheat leaf fragments treated preventively) it was 100 % Control; in test [2] (Trial 1, winter wheat field, rate 1.8 L/ha, 28 DA-B (first 28 DA-B column)), 32.4 % Control; in test [2] (Trial 1, winter wheat field, rate 1.8 L/ha, 28 DA-B (second 28 DA-B column)) it was 24.5 % Control. The “Fungicide efficacy … (% Control)” value in test [2] (Trial 2, winter wheat field, rate 1.8 L/ha, 26 DA-A) was 41.3 % Control; in test [2] (Trial 2, winter wheat field, rate 1.8 L/ha, 40 DA-A (first 40 DA-A column)), 31.9 % Control; in test [2] (Trial 2, winter wheat field, rate 1.8 L/ha, 40 DA-A (second 40 DA-A column)), 25.7 % Control. In addition, in test [1] (conclusion from Tables 1 to 5), the “effectiveness for controlling Septoria tritici” value is reported as “effective for controlling Septoria tritici”. Moreover, the “fungicidal efficacy against Zymoseptoria tritici strain Zt Tri-R6” value in test [1] (lowest rate of 800 g/ha) is reported as “very good fungicidal efficacy”.
As for `CC1COC(Cn2cncn2)(c2ccc(Oc3ccc(Cl)cc3)cc2Cl)O1` (stereo not drawn) [Difenoconazole], the “Fungicide efficacy … (% Control)” value in test [1] (Table 2, from AUDPC values, dose 25 g a.i./ha, strain Zt Tri-R6) was 81.8 % Control.
With Mancozeb, in test [1] (setting [3]), the “Fungicide efficacy … (% Control)” value amounted to 21.0 % Control.
In the case of `S1SSSSSSS1` [sulphur], in test [1] (Dose 4200 g a.i./ha, strain Zt Tri-R6, wheat leaf fragments treated preventively), the “Fungicide efficacy … (% Control)” value came to 65.8 % Control.

Values taken from US12389908B2, “Fungicide composition for controlling Zymoseptoria infection in plant” (priority 2019, dated 2025).
